The target in assay [1] is Activin receptor type-1 (Homo sapiens) (UniProt Q04771). The assay can be described thus: Inhibition of wild-type human ACVR1 (C188 to C509 residues) expressed in bacterial expression system at 10 uM by Kinomescan method relative to control.
Assay [2] concerns the target cAMP-dependent protein kinase catalytic subunit alpha (Homo sapiens) (UniProt P17612). The experiment in a line: Inhibition of wild-type human partial length PKAC-alpha (G10 to F351 residues) expressed in bacterial expression system at 10 uM by Kinomescan method relative to control.
In assay [3] the target is Dual specificity tyrosine-phosphorylation-regulated kinase 2 (Homo sapiens) (UniProt Q92630). The assay can be described thus: Inhibition of wild-type human full length DYRK2 (M1 to S528 residues) expressed in mammalian expression system at 10 uM by Kinomescan method relative to control.
For assay [4], the target named is Protein kinase C epsilon type (Homo sapiens) (UniProt Q02156). The assay can be described thus: Inhibition of wild-type human partial length PRKCE (A378 to P737 residues) expressed in mammalian expression system at 10 uM by Kinomescan method relative to control.
Protein kinase C epsilon type (Homo sapiens), sequence (Q02156 whole entry, the tested form may be a part): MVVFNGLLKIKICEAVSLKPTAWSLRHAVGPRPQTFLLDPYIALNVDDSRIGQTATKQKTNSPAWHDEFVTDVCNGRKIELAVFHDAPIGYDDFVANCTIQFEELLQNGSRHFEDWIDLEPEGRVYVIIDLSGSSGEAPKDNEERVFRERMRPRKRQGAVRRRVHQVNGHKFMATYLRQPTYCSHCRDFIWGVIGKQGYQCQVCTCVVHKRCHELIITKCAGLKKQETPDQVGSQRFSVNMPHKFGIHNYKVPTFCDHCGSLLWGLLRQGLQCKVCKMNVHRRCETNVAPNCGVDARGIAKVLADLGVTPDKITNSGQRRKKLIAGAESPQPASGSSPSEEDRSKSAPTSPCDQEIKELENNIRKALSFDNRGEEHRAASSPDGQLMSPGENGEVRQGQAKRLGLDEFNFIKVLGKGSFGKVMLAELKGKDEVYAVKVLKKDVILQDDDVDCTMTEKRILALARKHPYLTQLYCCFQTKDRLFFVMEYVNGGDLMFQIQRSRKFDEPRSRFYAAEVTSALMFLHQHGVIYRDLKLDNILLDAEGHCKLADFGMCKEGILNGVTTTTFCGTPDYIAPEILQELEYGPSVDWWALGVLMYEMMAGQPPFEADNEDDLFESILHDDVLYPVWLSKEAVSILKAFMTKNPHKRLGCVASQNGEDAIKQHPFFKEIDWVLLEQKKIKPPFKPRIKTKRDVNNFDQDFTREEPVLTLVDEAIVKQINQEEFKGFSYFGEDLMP
Assay [5] addresses ALK tyrosine kinase receptor (Homo sapiens) (UniProt Q9UM73). The experiment in a line: Inhibition of wild-type human partial length ALK (I1088 to E1409 residues) expressed in mammalian expression system at 10 uM by Kinomescan method relative to control.
In assay [6] the target is Microtubule-associated serine/threonine-protein kinase 1 (Homo sapiens) (UniProt Q9Y2H9). The assay can be described thus: Inhibition of wild-type human partial length MAST1 (S346 to V730 residues) expressed in mammalian expression system at 10 uM by Kinomescan method relative to control.
For assay [7], the target named is Receptor tyrosine-protein kinase erbB-4 (Homo sapiens) (UniProt Q15303). The assay can be described thus: Inhibition of wild-type human partial length ERBB4 (L690 to K994 residues) expressed in bacterial expression system at 10 uM by Kinomescan method relative to control.
Receptor tyrosine-protein kinase erbB-4 (Homo sapiens), sequence (Q15303 whole entry, the tested form may be a part): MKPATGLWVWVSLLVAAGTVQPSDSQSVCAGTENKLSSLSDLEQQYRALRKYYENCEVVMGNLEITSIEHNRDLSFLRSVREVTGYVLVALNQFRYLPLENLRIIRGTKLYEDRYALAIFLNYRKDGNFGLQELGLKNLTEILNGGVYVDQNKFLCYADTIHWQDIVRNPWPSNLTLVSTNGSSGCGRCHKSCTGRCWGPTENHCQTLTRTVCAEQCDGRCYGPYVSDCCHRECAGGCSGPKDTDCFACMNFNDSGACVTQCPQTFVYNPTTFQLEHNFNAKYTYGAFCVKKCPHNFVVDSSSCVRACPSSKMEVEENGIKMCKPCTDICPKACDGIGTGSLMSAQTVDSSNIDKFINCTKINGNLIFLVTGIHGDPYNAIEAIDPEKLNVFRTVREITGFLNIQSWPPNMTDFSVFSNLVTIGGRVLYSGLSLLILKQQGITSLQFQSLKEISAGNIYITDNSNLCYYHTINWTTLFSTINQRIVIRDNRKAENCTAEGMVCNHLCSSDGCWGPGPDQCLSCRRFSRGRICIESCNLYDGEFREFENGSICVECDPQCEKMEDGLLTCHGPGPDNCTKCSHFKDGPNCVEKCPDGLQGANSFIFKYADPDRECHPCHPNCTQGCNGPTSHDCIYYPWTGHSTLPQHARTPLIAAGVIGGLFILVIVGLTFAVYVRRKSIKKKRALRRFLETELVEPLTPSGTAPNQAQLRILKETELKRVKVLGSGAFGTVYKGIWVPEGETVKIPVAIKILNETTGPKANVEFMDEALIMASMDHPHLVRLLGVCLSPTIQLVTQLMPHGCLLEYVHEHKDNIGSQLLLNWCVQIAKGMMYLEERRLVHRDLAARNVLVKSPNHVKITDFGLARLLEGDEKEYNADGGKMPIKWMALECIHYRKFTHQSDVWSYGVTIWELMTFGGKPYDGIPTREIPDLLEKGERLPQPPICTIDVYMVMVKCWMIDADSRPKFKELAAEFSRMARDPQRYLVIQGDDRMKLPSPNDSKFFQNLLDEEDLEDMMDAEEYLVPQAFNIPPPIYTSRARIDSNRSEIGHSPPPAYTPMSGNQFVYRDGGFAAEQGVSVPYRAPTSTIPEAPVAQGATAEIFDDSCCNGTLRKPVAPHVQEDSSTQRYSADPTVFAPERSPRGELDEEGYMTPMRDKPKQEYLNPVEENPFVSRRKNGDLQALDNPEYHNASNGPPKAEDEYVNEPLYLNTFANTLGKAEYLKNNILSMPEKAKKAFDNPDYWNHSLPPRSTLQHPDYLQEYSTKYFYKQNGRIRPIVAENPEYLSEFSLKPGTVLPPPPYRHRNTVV
Assay [8] deals with Atypical kinase COQ8A, mitochondrial (Homo sapiens) (UniProt Q8NI60). The experiment in a line: Inhibition of wild-type human […] ADCK3 (M280 to Q647 residues) expressed in bacterial expression system at 10 uM by Kinomescan method relative to control.
The target in assay [9] is Protein kinase C delta type (Homo sapiens) (UniProt Q05655). The assay can be described thus: Inhibition of wild-type human partial length PRKCD (Q328 to D676 residues) expressed in bacterial expression system at 10 uM by Kinomescan method relative to control.
In assay [10] the target is Serine/threonine-protein kinase D1 (Homo sapiens) (UniProt Q15139). The experiment in a line: Inhibition of wild-type human partial length PRKD1 (G551 to E870 residues) expressed in bacterial expression system at 10 uM by Kinomescan method relative to control.
The target of assay [11] is Serine/threonine-protein kinase 16 (Homo sapiens) (UniProt O75716). The experiment in a line: Inhibition of wild-type human partial length STK16 (G11 to I305 residues) expressed in bacterial expression system at 10 uM by Kinomescan method relative to control.
For assay [12], the target named is Tyrosine-protein kinase receptor TYRO3 (Homo sapiens) (UniProt Q06418). The assay can be described thus: Inhibition of wild-type human partial length TYRO3 (S497 to T814 residues) expressed in bacterial expression system at 10 uM by Kinomescan method relative to control.
For assay [13], the target named is Mitogen-activated protein kinase kinase kinase kinase 4 (Homo sapiens) (UniProt O95819). The assay can be described thus: Inhibition of wild-type human partial length MAP4K4 (M1 to R310 residues) expressed in bacterial expression system at 10 uM by Kinomescan method relative to control.
Mitogen-activated protein kinase kinase kinase kinase 4 (Homo sapiens), sequence (O95819 2-1239 limits assumed): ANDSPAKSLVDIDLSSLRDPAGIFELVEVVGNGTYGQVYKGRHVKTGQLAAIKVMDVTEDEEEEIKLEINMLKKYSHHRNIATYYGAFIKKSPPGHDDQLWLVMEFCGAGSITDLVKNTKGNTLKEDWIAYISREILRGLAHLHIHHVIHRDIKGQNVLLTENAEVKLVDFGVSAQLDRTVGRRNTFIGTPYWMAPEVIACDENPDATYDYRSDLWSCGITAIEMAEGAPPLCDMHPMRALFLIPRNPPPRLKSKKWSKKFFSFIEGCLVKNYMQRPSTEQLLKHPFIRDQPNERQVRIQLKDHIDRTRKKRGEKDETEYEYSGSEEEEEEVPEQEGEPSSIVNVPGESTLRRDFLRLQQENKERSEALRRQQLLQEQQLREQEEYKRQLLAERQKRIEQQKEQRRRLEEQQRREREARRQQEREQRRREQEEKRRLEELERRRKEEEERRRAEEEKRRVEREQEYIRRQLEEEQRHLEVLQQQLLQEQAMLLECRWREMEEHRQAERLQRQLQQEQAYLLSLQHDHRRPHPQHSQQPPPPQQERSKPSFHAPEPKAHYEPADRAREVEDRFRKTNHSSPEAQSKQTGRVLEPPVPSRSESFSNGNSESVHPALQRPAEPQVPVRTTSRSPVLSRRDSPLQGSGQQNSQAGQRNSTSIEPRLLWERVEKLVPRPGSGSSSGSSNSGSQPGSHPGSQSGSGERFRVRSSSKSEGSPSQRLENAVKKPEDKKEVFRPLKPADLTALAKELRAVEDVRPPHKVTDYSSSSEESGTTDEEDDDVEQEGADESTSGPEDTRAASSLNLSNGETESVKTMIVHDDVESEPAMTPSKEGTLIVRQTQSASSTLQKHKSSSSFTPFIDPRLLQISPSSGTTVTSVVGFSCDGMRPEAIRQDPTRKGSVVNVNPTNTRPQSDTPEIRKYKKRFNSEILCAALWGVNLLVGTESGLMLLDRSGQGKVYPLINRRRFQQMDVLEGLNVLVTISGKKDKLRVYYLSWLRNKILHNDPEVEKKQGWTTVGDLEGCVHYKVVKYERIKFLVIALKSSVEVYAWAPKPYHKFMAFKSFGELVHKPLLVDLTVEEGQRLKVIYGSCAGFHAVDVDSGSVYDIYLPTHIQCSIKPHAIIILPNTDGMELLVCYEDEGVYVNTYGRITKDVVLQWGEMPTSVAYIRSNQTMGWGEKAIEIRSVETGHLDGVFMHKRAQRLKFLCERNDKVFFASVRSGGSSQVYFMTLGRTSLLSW
The target of assay [14] is Ribosomal protein S6 kinase alpha-3 (Homo sapiens) (UniProt P51812). The assay can be described thus: Inhibition of wild-type human partial length C-terminal RSK2 kinase domain 2 (V402 to S715 residues) expressed in mammalian expression system at 10 uM by Kinomescan method relative to control.
Ribosomal protein S6 kinase alpha-3 (Homo sapiens), sequence (P51812 whole entry, the tested form may be a part): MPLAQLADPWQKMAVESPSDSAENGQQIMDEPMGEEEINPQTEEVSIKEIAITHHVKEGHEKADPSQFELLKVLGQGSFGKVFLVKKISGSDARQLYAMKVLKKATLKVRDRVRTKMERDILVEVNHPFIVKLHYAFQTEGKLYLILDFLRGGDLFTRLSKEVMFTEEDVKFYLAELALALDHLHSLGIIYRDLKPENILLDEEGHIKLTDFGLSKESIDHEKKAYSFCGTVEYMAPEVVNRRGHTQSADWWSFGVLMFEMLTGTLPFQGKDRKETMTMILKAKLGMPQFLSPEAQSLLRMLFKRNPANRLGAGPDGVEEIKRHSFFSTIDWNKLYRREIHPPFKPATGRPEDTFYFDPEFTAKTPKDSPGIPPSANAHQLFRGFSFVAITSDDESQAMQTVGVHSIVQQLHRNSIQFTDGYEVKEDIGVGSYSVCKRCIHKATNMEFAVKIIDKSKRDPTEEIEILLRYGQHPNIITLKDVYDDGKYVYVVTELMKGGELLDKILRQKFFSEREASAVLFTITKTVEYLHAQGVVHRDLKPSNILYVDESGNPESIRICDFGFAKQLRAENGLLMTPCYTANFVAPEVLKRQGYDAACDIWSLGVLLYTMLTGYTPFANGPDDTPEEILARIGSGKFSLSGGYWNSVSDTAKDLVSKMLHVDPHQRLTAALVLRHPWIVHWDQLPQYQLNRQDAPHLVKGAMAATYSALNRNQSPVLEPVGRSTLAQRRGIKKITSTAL
The target in assay [15] is Testis-specific serine/threonine-protein kinase 3 (Homo sapiens) (UniProt Q96PN8). The assay can be described thus: Inhibition of wild-type human full length TSSK3 (M1 to T268 residues) expressed in mammalian expression system at 10 uM by Kinomescan method relative to control.
Assay [16] concerns Tyrosine-protein kinase ABL1 (Homo sapiens), P00519 [T315I]. The assay can be described thus: Inhibition of human non-phosphorylated ABL1 T315I mutant (S229 to K512 residues) expressed in mammalian expression system at 10 uM by Kinomescan method relative to control.
The target of assay [17] is AP2-associated protein kinase 1 (Homo sapiens) (UniProt Q2M2I8). The experiment in a line: Inhibition of human wild-type AAK1 (G25 to L333 residues) expressed in bacterial expression system at 10 uM by Kinomescan method relative to control.
Assay [18] addresses Cyclin-dependent kinase 17 (Homo sapiens) (UniProt Q00537). The experiment in a line: Inhibition of wild-type human full length PCTK2 (M1 to F523 residues) expressed in bacterial expression system at 1 uM by Kinomescan method relative to control.
Assay [19] concerns the target Serine/threonine-protein kinase Chk2 (Homo sapiens) (UniProt O96017). The experiment in a line: Inhibition of wild-type human partial length CHEK2 (S253 to E574 residues) expressed in bacterial expression system at 1 uM by Kinomescan method relative to control.
In assay [20] the target is Dual specificity testis-specific protein kinase 1 (Homo sapiens) (UniProt Q15569). The experiment in a line: Inhibition of wild-type human full length TESK1 (R37 to S626 residues) expressed in bacterial expression system at 1 uM by Kinomescan method relative to control.
Assay [21] has as its target Beta-adrenergic receptor kinase 1 (Homo sapiens) (UniProt P25098). The experiment in a line: Inhibition of wild-type human full length GRK2 (M1 to L689 residues) expressed in mammalian expression system at 1 uM by Kinomescan method relative to control.
Assay [22] has as its target Serine/threonine-protein kinase OSR1 (Homo sapiens) (UniProt O95747). The assay can be described thus: Inhibition of wild-type human full length OSR1 (M1 to S527 residues) expressed in mammalian expression system at 1 uM by Kinomescan method relative to control.
The test system of assay [23] is Mast/stem cell growth factor receptor Kit (Homo sapiens), P10721 [D816H]. The assay can be described thus: Inhibition of human partial length KIT D816H mutant (I571 to D952 residues) expressed in mammalian expression system at 1 uM by Kinomescan method relative to control.
Assay [24] addresses Serine/threonine-protein kinase 26 (Homo sapiens) (UniProt Q9P289). The experiment in a line: Inhibition of wild-type human full length MST4 (M1 to P416 residues) expressed in mammalian expression system at 1 uM by Kinomescan method relative to control.
The target in assay [25] is RAF proto-oncogene serine/threonine-protein kinase (Homo sapiens) (UniProt P04049). The assay can be described thus: Inhibition of wild-type human partial length RAF1 (I330 to T640 residues) expressed in bacterial expression system at 1 uM by Kinomescan method relative to control.
Assay [26] relates to Tyrosine-protein kinase ABL1 (Homo sapiens), P00519 [F317L]. The assay can be described thus: Inhibition of human non-phosphorylated ABL1 F317L mutant (S229 to K512 residues) expressed in mammalian expression system at 1 uM by Kinomescan method relative to control.
Assay [27] deals with Tyrosine-protein kinase ABL1 (Homo sapiens), P00519 [Y253F]. The assay can be described thus: Inhibition of human phosphorylated ABL1 Y253F mutant (S229 to K512 residues) expressed in mammalian expression system at 1 uM by Kinomescan method relative to control.

This passage reports inhibition results from ChEMBL document CHEMBL4387741, “Optimization of novel reversible Bruton's tyrosine kinase inhibitors identified using Tethering-fragment-based screens” (Bioorg Med Chem, 2019).

Each structure is given as a SMILES string.

Serine/threonine-protein kinase 26 (Homo sapiens), sequence (Q9P289 2-416 limits assumed): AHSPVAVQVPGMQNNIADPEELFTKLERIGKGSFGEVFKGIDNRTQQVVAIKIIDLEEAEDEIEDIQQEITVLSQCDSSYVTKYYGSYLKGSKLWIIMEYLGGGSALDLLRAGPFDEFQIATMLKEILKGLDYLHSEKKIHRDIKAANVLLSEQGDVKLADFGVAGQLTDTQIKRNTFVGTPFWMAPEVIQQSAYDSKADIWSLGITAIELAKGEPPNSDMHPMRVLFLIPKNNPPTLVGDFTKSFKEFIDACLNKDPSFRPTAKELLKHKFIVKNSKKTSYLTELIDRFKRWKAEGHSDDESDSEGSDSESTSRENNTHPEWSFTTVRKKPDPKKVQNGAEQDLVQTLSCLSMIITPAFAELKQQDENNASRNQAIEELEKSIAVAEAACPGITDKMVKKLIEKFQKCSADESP
Cyclin-dependent kinase 17 (Homo sapiens), sequence (Q00537 whole entry, looked up, the tested form may be a part): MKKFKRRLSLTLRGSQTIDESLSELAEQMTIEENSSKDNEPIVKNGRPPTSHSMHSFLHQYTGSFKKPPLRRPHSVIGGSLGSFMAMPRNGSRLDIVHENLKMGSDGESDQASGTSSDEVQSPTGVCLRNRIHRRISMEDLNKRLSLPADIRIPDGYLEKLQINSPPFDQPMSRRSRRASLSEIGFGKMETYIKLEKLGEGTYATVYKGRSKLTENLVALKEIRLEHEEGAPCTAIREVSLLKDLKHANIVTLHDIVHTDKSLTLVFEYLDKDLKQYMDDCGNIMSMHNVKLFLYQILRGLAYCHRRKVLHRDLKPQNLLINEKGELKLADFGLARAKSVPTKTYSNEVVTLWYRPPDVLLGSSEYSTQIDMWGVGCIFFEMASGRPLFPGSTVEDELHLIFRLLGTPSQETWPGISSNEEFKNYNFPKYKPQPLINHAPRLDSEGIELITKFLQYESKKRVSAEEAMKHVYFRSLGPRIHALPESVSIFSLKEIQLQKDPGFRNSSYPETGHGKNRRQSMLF

Regarding `O=C(Nc1cccc([C@H]2CCCN(c3ncnc4[nH]ccc34)C2)c1)Nc1ccccc1N1CCCC1`, the inhibition in assay [1] stood at 100%; in assay [2] it was 98%; in assay [3], 78%; in assay [4], 59%; in [5], 80%; in [6] it was 69%. For the same compound, the inhibition was 88% in [7]; 100% in [8]; 100% in assay [9]; 100% in assay [10]; 18% in assay [11]; 100% in assay [12]. Besides, the inhibition was determined as 100% in [13]; 100% in assay [14]; 85% in assay [15]; 65% in [16]; 26% in assay [17].

For the compound `O=C(Nc1cccc([C@@H]2CN(c3ncnc4[nH]ccc34)CCN2CCO)c1)Nc1c(F)cccc1N1CCCC1`, the inhibition was determined as 100% in assay [18]; 69% in assay [19]; 100% in assay [20]; 96% in assay [21]; 100% in assay [22]; 18% in assay [23]. Also, the inhibition in [24] amounted to 54%; in assay [25] it was 86%; in assay [26], 100%; in [27], 100%.
